# pEC50: −log10 of the molar value.
# Assays:
# calcitonin receptor [1] = target: T1, calcitonin receptor (Homo sapiens, UniProt P30988); experiment: Live cell cAMP accumulation (GloSensor), UMR-106 cells transfected with calcitonin receptor; format: cell-based; design: host or cells: UMR-106 (rat osteoblast-like) in A1; COS-7 (African monkey kidney) in A3; conditions: ATP […] + calcitonin 1 nM
# T1 sequence (P30988 25-474): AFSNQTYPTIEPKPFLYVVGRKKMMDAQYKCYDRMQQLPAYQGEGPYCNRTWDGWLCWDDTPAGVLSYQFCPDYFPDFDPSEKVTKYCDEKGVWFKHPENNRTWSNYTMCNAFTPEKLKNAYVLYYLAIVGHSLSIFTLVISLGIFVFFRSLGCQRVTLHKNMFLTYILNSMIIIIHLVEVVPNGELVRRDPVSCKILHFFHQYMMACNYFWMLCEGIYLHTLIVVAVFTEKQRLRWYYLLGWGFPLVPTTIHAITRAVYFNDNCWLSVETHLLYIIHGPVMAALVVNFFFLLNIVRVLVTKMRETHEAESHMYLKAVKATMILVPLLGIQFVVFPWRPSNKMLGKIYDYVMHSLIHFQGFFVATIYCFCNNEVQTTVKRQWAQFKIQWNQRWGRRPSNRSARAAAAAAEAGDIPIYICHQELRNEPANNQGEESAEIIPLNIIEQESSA
# [2] = target: T2, CRLR + RAMP2 (adrenomedullin 1 receptor) (Homo sapiens, UniProt O60895+Q16602); experiment: Live cell cAMP accumulation (GloSensor), COS-7 cells transfected with CRLR + RAMP2; format: cell-based; conditions: ATP […] + CGRP 10 nM, RAMP2, COS-7
# T2 construct: RAMP plasmid gift of Dr Patrick Sexton; host or cells: COS-7
# T2 sequence (Q16602 23-461): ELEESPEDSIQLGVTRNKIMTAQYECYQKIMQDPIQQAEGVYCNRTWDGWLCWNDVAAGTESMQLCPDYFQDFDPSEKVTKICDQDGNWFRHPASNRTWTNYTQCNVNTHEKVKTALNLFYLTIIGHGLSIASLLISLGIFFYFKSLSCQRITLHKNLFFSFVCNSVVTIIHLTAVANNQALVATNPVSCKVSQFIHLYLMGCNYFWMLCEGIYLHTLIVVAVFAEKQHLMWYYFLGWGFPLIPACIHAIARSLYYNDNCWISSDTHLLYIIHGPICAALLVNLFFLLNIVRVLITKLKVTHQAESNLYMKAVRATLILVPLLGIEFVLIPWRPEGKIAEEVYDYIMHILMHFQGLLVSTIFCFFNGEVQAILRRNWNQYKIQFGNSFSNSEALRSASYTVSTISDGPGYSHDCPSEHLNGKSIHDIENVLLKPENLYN
# T2 sequence (O60895 43-175): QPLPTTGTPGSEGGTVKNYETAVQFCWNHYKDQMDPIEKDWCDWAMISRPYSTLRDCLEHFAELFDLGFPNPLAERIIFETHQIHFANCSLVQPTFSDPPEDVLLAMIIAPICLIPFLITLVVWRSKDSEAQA
# VPAC2R = target: T3, VPAC2R (Homo sapiens, UniProt P41587); experiment: Live cell cAMP accumulation (GloSensor), COS-7 cells transfected with VPAC2R; format: cell-based
# T3 construct: host or cells: COS-7
# T3 sequence (P41587 24-438): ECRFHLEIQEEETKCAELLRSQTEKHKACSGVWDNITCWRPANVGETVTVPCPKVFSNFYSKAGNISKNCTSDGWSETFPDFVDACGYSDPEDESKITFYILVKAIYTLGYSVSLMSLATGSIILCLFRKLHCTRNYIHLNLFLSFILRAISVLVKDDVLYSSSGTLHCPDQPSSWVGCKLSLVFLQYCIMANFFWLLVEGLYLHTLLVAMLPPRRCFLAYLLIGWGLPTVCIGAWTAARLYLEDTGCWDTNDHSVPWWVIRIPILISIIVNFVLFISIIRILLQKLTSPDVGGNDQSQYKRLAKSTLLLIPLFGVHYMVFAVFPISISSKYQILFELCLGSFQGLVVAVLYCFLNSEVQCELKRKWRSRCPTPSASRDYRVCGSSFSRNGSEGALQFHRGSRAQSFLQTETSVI
# PTH1R = conditions: ref Kim et al, 2018, cited from earlier work
# Text: Extracellular nucleotides are known for their ability to act as purinoceptor agonists ([Burnstock, 2007]).
# calcitonin receptor [3] = target: T1, calcitonin receptor; experiment: Live cell cAMP accumulation (GloSensor), COS-7 cells transfected with calcitonin receptor; format: cell-based; design: host or cells: COS-7 (African monkey kidney) in A3; conditions: ATP […] + calcitonin 1 nM
# VPAC1R [4] = target: T4, VPAC1R (Homo sapiens, UniProt P32241); experiment: Live cell cAMP accumulation (GloSensor), SaOS-2 cells with endogenous VPAC1R; format: cell-based; design: SaOS-2 cells endogenously express VPAC1R; endogenous in cells; host or cells: SaOS-2; conditions: ATP […] + VIP 1 nM
# T4 sequence (P32241 31-457): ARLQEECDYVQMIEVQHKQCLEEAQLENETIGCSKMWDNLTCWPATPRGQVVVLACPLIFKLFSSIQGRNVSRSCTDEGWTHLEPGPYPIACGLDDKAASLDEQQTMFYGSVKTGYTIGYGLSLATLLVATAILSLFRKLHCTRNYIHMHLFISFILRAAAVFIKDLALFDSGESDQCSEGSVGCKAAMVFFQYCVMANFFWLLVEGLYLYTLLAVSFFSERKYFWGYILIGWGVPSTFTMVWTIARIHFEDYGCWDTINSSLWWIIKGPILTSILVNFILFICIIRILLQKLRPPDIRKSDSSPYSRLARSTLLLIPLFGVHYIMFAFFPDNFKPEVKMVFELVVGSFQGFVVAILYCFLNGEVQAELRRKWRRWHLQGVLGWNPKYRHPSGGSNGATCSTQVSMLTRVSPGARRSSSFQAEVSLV
# PAC1R = target: T5, PAC1R (Homo sapiens, UniProt P41586); experiment: Live cell cAMP accumulation (GloSensor), COS-7 cells transfected with PAC1R; format: cell-based; conditions: ATP […] + PACAP 0.1 nM
# T5 construct: host or cells: COS-7
# T5 sequence (P41586 21-468): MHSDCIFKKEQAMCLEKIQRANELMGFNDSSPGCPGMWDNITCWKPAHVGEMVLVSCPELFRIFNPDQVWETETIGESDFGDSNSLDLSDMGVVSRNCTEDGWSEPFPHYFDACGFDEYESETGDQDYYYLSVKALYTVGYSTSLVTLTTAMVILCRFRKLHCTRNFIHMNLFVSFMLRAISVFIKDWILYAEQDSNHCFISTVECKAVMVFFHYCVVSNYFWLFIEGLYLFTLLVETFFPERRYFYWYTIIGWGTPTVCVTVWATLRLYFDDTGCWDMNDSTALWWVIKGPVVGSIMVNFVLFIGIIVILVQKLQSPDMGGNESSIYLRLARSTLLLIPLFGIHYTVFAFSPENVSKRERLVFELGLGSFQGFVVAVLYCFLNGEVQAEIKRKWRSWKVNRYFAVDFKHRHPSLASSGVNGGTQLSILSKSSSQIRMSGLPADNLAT
# [5] = target: T6, CRLR + RAMP1 (CGRP receptor) (Homo sapiens, UniProt O60894+Q16602); experiment: Live cell cAMP accumulation (GloSensor), COS-7 cells transfected with CRLR + RAMP1; format: cell-based; conditions: RAMP1, COS-7
# T6 construct: RAMP plasmid gift of Dr Patrick Sexton; host or cells: COS-7
# T6 sequence (Q16602 23-461): as the sequence (Q16602 23-461) above
# T6 sequence (O60894 27-148): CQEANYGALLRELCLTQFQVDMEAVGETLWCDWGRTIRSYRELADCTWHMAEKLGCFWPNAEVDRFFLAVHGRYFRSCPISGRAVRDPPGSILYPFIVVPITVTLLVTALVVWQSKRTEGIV
# VPAC1R [6] = target: T4, VPAC1R; experiment: Live cell cAMP accumulation (GloSensor), COS-7 cells transfected with VPAC1R; format: cell-based; design: host or cells: COS-7; conditions: ATP […] + VIP 0.1 nM
# class B GPCRs = experiment: Signaling of class B GPCRs tested (summary over receptors); format: cell-based; conditions: CMP in place of ATP
# Protocol: Cells were treated with IBMX (200–500 μM) and were further incubated for 20 minutes at room temperature. […] The emitted luminescence was measured at room temperature with a 1-second integration time at 1.5-minute intervals for a total of 45 minutes.
# Data shown are means ± SEM.
# To assess the time-to-maximum-slope (ie, “lag time”) for each time-course curve, we determined the time elapsed from the addition of agonist (time 0) to the first data point of the maximum slope. This procedure is illustrated in Supplemental Fig. 1.
smiles,measurement,setting,value
"Nc1ncnc2c1ncn2[C@@H]1O[C@H](COP(=O)(O)OP(=O)(O)OP(=O)(O)O)[C@@H](O)[C@H]1O [ATP, Adenosine 5'-triphosphate]",effect on calcitonin-induced cAMP accumulation,calcitonin receptor [1],markedly enhanced
same,effect on CGRP-induced cAMP accumulation,[2],markedly enhanced
same,effect on VIP-induced cAMP accumulation,VPAC2R; ATP […] + VIP 0.1 nM,markedly enhanced
same,effect on PTH1R signaling in absence of added agonist,PTH1R; extracellular ATP alone,no effect on PTH1R signaling in the absence of added agonist
same,effect on agonist-induced cAMP elevation and β-arrestin recruitment,PTH1R; extracellular ATP with PTH1R agonist,strongly enhance
same,effect on rate of calcitonin-induced cAMP accumulation,calcitonin receptor [3],markedly enhanced
same,effect on VIP-induced cAMP accumulation,VPAC1R [4],enhanced VIP-induced cAMP accumulation
same,effect on PACAP-induced cAMP accumulation,PAC1R,markedly enhanced
same,Hill coefficient / slope factor,"[5]; ATP + CGRP 10 nM, 4-parameter fit, n = 3",3.2
same,effect on CGRP-induced cAMP accumulation,[5]; ATP […] + CGRP 10 nM,markedly enhanced
same,pEC50,"[5]; EC50 of ATP for potentiation of CGRP signaling, ATP + CGRP 10 nM, 4-parameter fit, n = 3",3.30
same,effect on VIP-induced cAMP accumulation,VPAC1R [6],markedly enhanced
"Nc1ccn([C@@H]2O[C@H](COP(=O)(O)O)[C@@H](O)[C@H]2O)c(=O)n1 [CMP, cytidine 5'-monophosphate]",enhancing effect of ATP,class B GPCRs,mimicked
"CC[C@H](C)[C@H](NC(=O)[C@H](CO)NC(=O)[C@H](CC(N)=O)NC(=O)[C@H](CC(C)C)NC(=O)[C@H](Cc1ccc(O)cc1)NC(=O)[C@H](CCCCN)NC(=O)[C@H](CCCCN)NC(=O)[C@@H](NC(=O)[C@H](C)NC(=O)[C@H](CCSC)NC(=O)[C@H](CCC(N)=O)NC(=O)[C@H](CCCCN)NC(=O)[C@H](CCCNC(=N)N)NC(=O)[C@H](CC(C)C)NC(=O)[C@H](CCCNC(=N)N)NC(=O)[C@@H](NC(=O)[C@H](Cc1ccc(O)cc1)NC(=O)[C@H](CC(N)=O)NC(=O)[C@H](CC(=O)O)NC(=O)[C@@H](NC(=O)[C@H](Cc1ccccc1)NC(=O)[C@@H](NC(=O)[C@H](C)NC(=O)[C@H](CC(=O)O)NC(=O)[C@H](CO)NC(=O)[C@@H](N)Cc1c[nH]cn1)C(C)C)[C@@H](C)O)[C@@H](C)O)C(C)C)C(=O)N[C@@H](CC(C)C)C(=O)N[C@@H](CC(N)=O)C(N)=O [VIP, vasoactive intestinal peptide]",Normalized Maximum,"VPAC2R; VIP + vehicle, Fig. 6H, VPAC2R, fraction of greatest slope, ± SEM, n = 3-5",0.94 ± 0.01
